Columns and labels:
[1] = test system: caspase-3; assay: Caspase-3 activity in ovarian cancer cells (DEVD-AFC); format: cell-based, human; conditions: for increase in caspase-3 activity: 24 hours
Experimental: Ovarian cancer cells (1×10^6) in culture (six-well plates) were treated with or without docetaxel at the cell line specific IC50 or IC90 concentration for 24 hours. After washing with PBS, cells were lysed in 50 μL of cell lysis buffer provided. Caspase-3, caspase-8, and caspase-9 activities were measured with the appropriate apoptosis detection kit (BD Biosciences/Clontech, Palo Alto, Calif.), using substrate DEVD-AFC for caspase-3, IETD-AFC for caspase-8, and LEHD-AMC for caspase-9.

[2] = test system: SKOV3 cells; assay: Cytotoxicity assay (MTT), SKOV3; format: cell-based, human; conditions: Homo sapiens, SK-OV-3; SKOV3, 96 hours
Experimental: (§1) The medium was exchanged after 48 hours with increasing concentrations of docetaxel (obtained from Aventis Pharma, Bridgewater, N.J.) dissolved in ethanol (final concentration range, 0.1-10,000 nmol/L prepared in medium) or cisplatin (purchased from LKT Laboratories, Inc., St. Paul, Minn.) dissolved in water. After a 96-hour incubation, 50 μL of 0.15% 3-(4,5-dimethylthiazol-2-yl)-2,5-diphenyltetrazolium bromide was added to each well and incubated for 2 hours. The supernatant was removed, and cells were dissolved in 100 μL DMSO. The absorbance at 570 nm was recorded using a FALCON microplate reader (Becton Dickinson Labware, Bedford, Mass.), and cell survival expressed as a percent increase or decrease above control conditions, after subtracting blank A570 readings. The IC50 concentration was determined by finding the A570 reading midpoint between maximal and minimal readings and finding the chemotherapy concentration that intersects the growth curve at that A570 reading.

[3] = test system: SKOV3-TR cells; assay: Cytotoxicity assay (MTT), SKOV3-TR; format: cell-based, human
Experimental: as §1

[4] = test system: SKOV3-TR and HeyA8-MDR cells; assay: TUNEL apoptosis assay, taxane-resistant cells; format: cell-based, human
Experimental: (§2) Terminal deoxynucleotidyl transferase-mediated nick end labeling-positive cells were detected using Dead End Fluorometric terminal deoxynucleotidyl transferase-mediated nick end labeling system (APO-DIRECT, BD Biosciences/PharMingen, San Diego, Calif.) according to the manufacturer's instructions. Briefly, ovarian cancer cells in culture were treated with varying concentrations of docetaxel and harvested after 12, 24, 48, or 96 hours. Cells were fixed with 4% paraformaldehyde solution for 25 minutes on ice. Intracellular DNA fragments were then labeled by exposing cells to fluorescein-12-dUTP, treated with propidium iodide and RNaseA solution, and analyzed by flow cytometry (EPICS XL, Beckman Coulter, Miami, Fla.). The percentages of apoptotic cells were averaged over three consecutive experiments.

[5] = test system: HeyA8 cells; assay: Cytotoxicity assay (MTT), HeyA8; format: cell-based, human; conditions: Homo sapiens, HEY A8; HeyA8, 96 hours
Experimental: as §1

[6] = test system: HeyA8 cells; assay: TUNEL apoptosis assay, HeyA8; format: cell-based, human
Experimental: as §2, with “Briefly, ovarian cancer cells in culture were treated with varying concentrations of docetaxel and harvested after 12, 24, 48, or 96 hours.” left out

[7] = test system: HeyA8-MDR cells; assay: Cytotoxicity assay (MTT), HeyA8-MDR; format: cell-based, human
Experimental: as §1

[8] = test system: SKOV3 cells; assay: TUNEL apoptosis assay, SKOV3; format: cell-based, human
Experimental: as §2, with “Briefly, ovarian cancer cells in culture were treated with varying concentrations of docetaxel and harvested after 12, 24, 48, or 96 hours.” left out

[9] = test system: FAK; assay: FAK cleavage in response to docetaxel, Western blot; format: cell-based, human
Experimental: Cells were lysed in modified RIPA buffer (50 mM Tris, 150 mM NaCl, 1% triton, 0.5% deoxycholate plus 25 µg/ml leupeptin, 10 µg/ml aprotinin, 2 mM EDTA, and 1 mM sodium orthovanadate (Sigma Chemical Co, St. Louis, Mo.) as previously described (Sood et al., 2004; Sood et al., 2002). A sample was removed from culture dishes by cell scraping and centrifuged at 12,500 rpm for 30 min. The […] protein concentration of the supernatant was determined using a bicinchoninic acid protein assay reagent kit (Pierce, Rockford, Ill.), and whole cell lysates were analyzed by 7.5% SDS-PAGE. Samples were then transferred to nitrocellulose membrane by semi-dry transfer (BioRad Laboratories, Hercules, Calif.). Membranes were blocked with 5% nonfat milk, and incubated with 0.25 μg/mL anti-FAK antibody (Biosource, International Camarillo, Calif.) for 1 h at room temperature. Antibody was detected with 0.167 μg/mL HRP-conjugated anti-mouse secondary antibody (The Jackson Laboratory, Bar Harbor, Me.) and developed with an enhanced chemiluminescence detection kit (Pierce). Equal loading was confirmed by detection of β-actin (0.1 μg/ml, anti-β-actin antibody, Sigma Chemical). Densitometric analysis was performed using the Scion Imaging software (Scion Corporation, Frederick, Md.).
It has been reported that FAK may be cleaved by caspase-3 (Gervais et al., 1998; Sasaki et al., 2002; Carragher et al., 2001). Based on observations regarding modulation of caspase levels by docetaxel in ovarian cancer cells, FAK cleavage after treatment with docetaxel was examined and whether there are differences in extent of FAK cleavage between the taxane-sensitive and taxane-resistant cell lines. In SKOV3 cells, FAK was cleaved after 48 and 72 hours of exposure to docetaxel (FIG. 7A). The 71-kDa fragments increased after treatment with docetaxel, whereas the 125-kDa fragments decreased. […] To study the dependence of FAK cleavage on caspase-3, the effect of DEVDfmk (caspase-3 inhibitor) was examined.

[10] = test system: VEGF mRNA; assay: VEGF mRNA expression, real-time RT-PCR; format: cell-based, human
Experimental: Total RNA was extracted (Trizol reagent; Invitrogen Co, Carlsbad, Calif.) and reverse transcribed using an oligo(dT) primer and M-MLV reverse transcriptase (Life Technologies, Inc., Rockville, Md.) in a final reaction volume of 20 μl (60 min at 42° C.). PCR amplifications are performed using the ABI Prism 7700 Sequence Detection System with TaqMan One-Step RT-PCR Master Mix Reagent kit (PE Applied Biosystems, Foster City, Calif.). Quantitative values are obtained from the Ct value, at which the increase in fluorescent signal associated with exponential growth of PCR products starts to be detected by the laser detector of the Sequence Detection System, using the analysis software according to the manufacturer's instructions (each sample is normalized on the basis of its I8S content). The VEGF primers were obtained from Applied Biosystems (Item number HS00173626-ml). βAR expression was examined with semi-quantitative RT-PCR using the following primers: βAR (forward, 5′-[…]-3′ (SEQ ID NO:13), reverse, 5′-[…]-3′) (SEQ ID NO:14); β2AR (forward, 5′-[…]-3′ (SEQ ID NO:15), reverse, 5′-[…]-3′) (SEQ ID NO:16).

[11] = test system: HeyA8 cells; assay: Daily β-agonist treatment of mice bearing HeyA8 ovarian cancer cells; format: in vivo, nude mice; conditions: 10 mg/kg daily
Text: Mice habituated to vivarium conditions for 1 week before the initiation of stress procedures. A restraint-stress procedure was used based on previous studies (Sheridan et al., 1991), substituting a novel Mouse Restraint System (FIG. 15A) for conical centrifuge tubes. In this system, up to 10 mice are placed in individual slots, and each slot can be adjusted to restrain the animal for a desired length of time. In the present study, restraint stress began between 8 a.m. and 10 a.m., and lasted for 2-6 hours for up to 21 days. The ovarian cancer cell lines were harvested from subconfluent cultures by a brief exposure to 0.25% trypsin and 0.02% EDTA, resuspended in Hank's balanced salt solution (HBSS), and tested for >95% viability by trypan blue dye exclusion. The HeyA8 cells were injected i.p. into mice at a concentration of 2.5×10^5 cells while the other cell lines were injected at 1.0×10^6 cells per 0.2 ml HBSS, ten days after starting stress in all groups. Animals were necropsied 21 days after tumor injection, and tumors in the peritoneal cavity were excised, weighed, and documented for location. Immunohistochemistry and H&E staining procedures were carried out on formalin-fixed paraffin-embedded tumors.
Starting 4 days after tumor cell injection, mice bearing HeyA8 ovarian cancer cells (n=10 per group) were treated daily with either 1) PBS; 2) isoproterenol (non-specific β-agonist) 10 mg/kg; 3) terbutaline (β2-agonist) 5 mg/kg; 4) xamoterol (β1-agonist) 1 mg/kg; or 5) isoproterenol plus 2 mg/kg of the non-specific β-antagonist propranolol.

[12] = test system: HeyA8 tumor samples; assay: Mean vessel density (CD31) in HeyA8 tumor samples; format: in vivo, nude mice; conditions: daily agonist treatment
Experimental: Paraffin sections were stained for CD31 (1:800 dilution, Pharmingen, San Jose, Calif.), MMP-2 (1:500 dilution, Chemicon, Temecula, Calif.), MMP-9 (1:200 dilution, Calbiochem, San Diego, Calif.), VEGF (1:500 dilution, Santa Cruz Biotechnology, Santa Cruz, Calif.) and bFGF (1:1,000 dilution, Sigma, St. Louis, Mo.) at 4° C. Samples were stained with a biotinylated goat anti-rabbit antibody for 30 min (prediluted), followed by strepavidin horseradish peroxidase for 30 min (1:300 dilution), and visualized in 3,3′-diaminobenzidine (DAB) for 5-10 min.
To quantify MVD, 10 random 0.159 mm^2 fields at 100× magnification were examined for each tumor, and the microvessels within those fields were counted. A single microvessel was defined as a discrete cluster of cells stained CD31(+), and the presence of a lumen was required for scoring as a microvessel.

[13] = test system: A2780 and RMG-II cells; assay: Intracellular cAMP in βAR negative cell lines; format: cell-based, human

Compound: CC(=O)O[C@@]12CO[C@@H]1C[C@H](O)[C@@]1(C)C(=O)[C@H](O)C3=C(C)[C@@H](OC(=O)[C@H](O)[C@@H](NC(=O)OC(C)(C)C)c4ccccc4)C[C@@](O)([C@@H](OC(=O)c4ccccc4)[C@H]21)C3(C)C [docetaxel]
- increase in caspase-3 activity ([1]; HeyA8, IC50 level of docetaxel): 1.8 fold
- increase in caspase-3 activity ([1]; HeyA8, IC90 level of docetaxel): 2.5 fold
- increase in caspase-3 activity ([1]; SKOV3, IC50 level of docetaxel): 2.8 fold
- increase in caspase-3 activity ([1]; SKOV3, IC90 level of docetaxel): 5.4 fold
- induction of caspase activity ([1]; resistant SKOV3-TR and HeyA8-MDR, IC50 and IC90 levels for sensitive lines, caspase-3, -8, -9): not able to induce caspase activity
- IC50 [2]: 6.2 nM
- IC50 ([3]; Homo sapiens, SKOV3TR, SKOV3-TR, 96 hours): 225 nM
- fold more resistant to docetaxel ([3]; SKOV3-TR versus SKOV3): 36 fold
- apoptosis ([4]; FAK siRNA with or without docetaxel): neither agent alone induced much apoptosis
- level of apoptosis ([4]; docetaxel with or without DEVD-fmk): remained low
- IC50 [5]: 1 nM
- apoptosis ([6]; HeyA8, IC20 level of docetaxel, FAK siRNA 48 hours before): ~42%
- proportion of apoptotic cells ([6]; HeyA8, docetaxel 72 hours without or with DEVD-fmk): 56%
- proportion of apoptotic cells ([6]; HeyA8, docetaxel 96 hours): 66%
- fold more resistant to docetaxel ([7]; HeyA8-MDR versus HeyA8): 300 fold
- IC50 ([7]; Homo sapiens, HeyA8-MDR, 96 hours): 450 nM
- apoptosis ([8]; SKOV3, IC20 level of docetaxel, FAK siRNA 48 hours before): about 41%
- proportion of apoptotic cells ([8]; SKOV3, docetaxel 72 hours without or with DEVD-fmk): 72%
- proportion of apoptotic cells ([8]; SKOV3, docetaxel 96 hours): 84%
- FAK cleavage ([9]; SKOV3, 48 and 72 hours): cleaved
- FAK cleavage ([9]; SKOV3-TR and HeyA8-MDR): did not show any increase in FAK cleavage products

Compound: CC(C)NCC(O)c1ccc(O)c(O)c1 (centres unmarked) [isoproterenol]
- effect on VEGF mRNA ([10]; SKOV3ip1, forskolin 1 μM, db-cAMP 1 mM): mimicked
- increase in average tumor weight compared to control [11]: 266%
- increase in mean number of tumor nodules compared to control [11]: 341%
- MVD counts [12]: significantly higher MVD counts compared to controls
- intracellular cAMP levels after stimulation [13]: neither of the βAR negative cell lines showed an increase in intracellular cAMP levels

Compound: NC[C@H](O)c1ccc(O)c(O)c1 [norepinephrine]
- increase in VEGF mRNA expression ([10]; SKOV3ip1, peak 1.5 hours following treatment): 8.4 fold
- VEGF expression ([10]; βAR-negative A2780 cells): no increase in VEGF expression
- intracellular cAMP levels after stimulation [13]: neither of the βAR negative cell lines showed an increase in intracellular cAMP levels
